Laboratory results published in paper PMC11851430, “Workflow for E3 Ligase Ligand Validation for PROTAC Development” (ACS Chemical Biology, 2025).

What was measured:
Jurkat cells = assay: CellTiterGlo cell viability assay; format: cell-based, human; conditions: 24 h, mean of triplicates, ^b/^c values estimated
Summary of the method: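 Jurkat cells treated with compound titrations; viability read by CellTiter-Glo 2.0 luminescence after 10 min at room temperature, fitted to a four-parameter curve. Proteomics samples lysed in 2% SDS, 50 mM Tris pH 8.5, TCEP and CAA, sonicated, then analysed by label-free quantitation.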

[1] = molecular target: T1, kinase protein levels in MCF-7 cells (Homo sapiens, UniProt A0A096LP01); assay: TMT-labeled quantitative proteomics; format: cell-based; conditions: protein LINC00493
T1 construct: endogenous in cells; host or cells: MCF-7

[2] = test system: kinase protein levels in MCF-7 cells; assay: TMT-labeled quantitative proteomics; format: cell-based, human
full-length AAK1 = full-length AAK1 (Homo sapiens, UniProt Q2M2I8); assay: NanoBRET target engagement assay, intact and permeabilized cells; conditions: NanoBRET, mean of duplicates
AURKA = molecular target: T2, AURKA (Homo sapiens, UniProt O14965); assay: as above; conditions: mean of duplicates, ^a values estimated by extrapolation
T2 sequence (O14965 1-403): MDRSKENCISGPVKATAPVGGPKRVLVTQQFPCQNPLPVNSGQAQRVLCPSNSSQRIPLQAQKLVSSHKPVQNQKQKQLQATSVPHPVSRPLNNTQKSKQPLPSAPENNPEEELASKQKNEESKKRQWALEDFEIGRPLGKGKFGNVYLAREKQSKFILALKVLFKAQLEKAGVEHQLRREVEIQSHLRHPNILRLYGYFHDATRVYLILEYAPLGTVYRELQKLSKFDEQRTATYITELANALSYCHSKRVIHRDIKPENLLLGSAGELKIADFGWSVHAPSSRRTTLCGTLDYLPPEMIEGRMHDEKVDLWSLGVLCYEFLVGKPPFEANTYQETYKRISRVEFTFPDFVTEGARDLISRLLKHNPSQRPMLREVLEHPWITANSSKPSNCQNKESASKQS
Description: Compounds were pipetted at various concentrations using an Echo acoustic dispenser (Labcyte), immediately followed by Tracer K10 (Promega, Tracer DB ID: T000008) for AAK1 and Aurora A and VHL Tracer (Promega, Tracer DB ID: T000019) for VHL, at an optimum KD concentration chosen from TracerDB ( tracerdb.org), respectively.
To measure the BRET signal, the NanoBRET® NanoGlo Substrate (Promega:
N1573) was added as per the manufacturer’s protocol, and filtered luminescence was measured on a PHERAstar plate reader (BMG Labtech) equipped with a luminescence filter pair (450 nm BP filter (donor) and 610 nm LP filter (acceptor)). For NanoBRET® measurement in permeabilized cells, 25 nL of digitonin (0.05 μg/μL) was pipetted into each well using an
After incubation, the BRET signals were measured by a PHERAstar plate reader (BMG Labtech) following the same procedure as intact NanoBRET® measurement. Competitive displacement data were then normalized to controls and were plotted using GraphPad Prism 9 software employing a normalized 3-parameter curve fit with the following equation:

T1 sequence (A0A096LP01 whole entry): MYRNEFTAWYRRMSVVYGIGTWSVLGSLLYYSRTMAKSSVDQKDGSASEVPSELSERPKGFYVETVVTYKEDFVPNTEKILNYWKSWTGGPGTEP
Sequence of full-length AAK1 (Q2M2I8 whole entry): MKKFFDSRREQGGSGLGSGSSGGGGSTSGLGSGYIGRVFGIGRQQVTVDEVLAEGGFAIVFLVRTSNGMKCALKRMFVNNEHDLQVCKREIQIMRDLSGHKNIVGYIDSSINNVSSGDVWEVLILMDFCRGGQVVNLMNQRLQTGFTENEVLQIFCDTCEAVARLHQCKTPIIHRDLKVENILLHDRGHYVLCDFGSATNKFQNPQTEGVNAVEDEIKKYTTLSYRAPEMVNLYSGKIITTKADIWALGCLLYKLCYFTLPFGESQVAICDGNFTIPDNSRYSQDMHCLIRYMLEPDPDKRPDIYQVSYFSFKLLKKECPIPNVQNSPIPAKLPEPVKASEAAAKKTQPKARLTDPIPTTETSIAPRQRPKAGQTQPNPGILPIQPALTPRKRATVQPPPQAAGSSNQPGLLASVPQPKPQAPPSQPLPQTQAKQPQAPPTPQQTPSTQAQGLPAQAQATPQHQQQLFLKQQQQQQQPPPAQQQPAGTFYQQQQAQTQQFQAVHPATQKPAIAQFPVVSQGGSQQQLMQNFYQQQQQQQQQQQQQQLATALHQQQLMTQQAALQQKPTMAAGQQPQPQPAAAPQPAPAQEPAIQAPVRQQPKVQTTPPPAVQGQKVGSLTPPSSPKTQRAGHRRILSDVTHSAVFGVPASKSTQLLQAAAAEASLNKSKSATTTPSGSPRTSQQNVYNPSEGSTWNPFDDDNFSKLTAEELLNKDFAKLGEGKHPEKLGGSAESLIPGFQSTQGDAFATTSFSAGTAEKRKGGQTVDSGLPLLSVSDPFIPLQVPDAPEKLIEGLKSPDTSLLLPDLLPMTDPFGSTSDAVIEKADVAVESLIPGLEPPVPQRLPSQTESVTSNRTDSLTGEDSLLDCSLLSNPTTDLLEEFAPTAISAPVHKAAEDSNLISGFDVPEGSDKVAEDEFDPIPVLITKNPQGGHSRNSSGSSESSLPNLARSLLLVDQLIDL

CCOC(=O)c1cc(Nc2cc(C3CC3)[nH]n2)nc(Nc2ccc(CC#N)cc2)n1 [compound 5]
IC50±sd/μM (cell viability) (Jurkat cells): single-digit micromolar | IC50 (Jurkat cells; Homo sapiens, read-out: IC50±sd/μM (cell viability)): 3.1 ± 1 µM | P.Value (compound/DMSO) ([1]; MCF7, 2.5 µM, set3): 0.03457 | log2FC (compound/DMSO) ([1]; MCF7, 2.5 µM, set3): -0.4501 | P.Value (compound/DMSO) ([1]; MCF, 0.25µM, set4): 0.002655 | log2FC (compound/DMSO) ([1]; MCF, 0.25µM, set4): 0.2815 | kinase downregulation profile compared with Jurkat cells ([2]; MCF-7 cells, 0.25 μM, 6 h): comparable downregulation profiles | log2FC (compound/DMSO) ([2]; protein NBPF19;NBPF8;NBPF10;NBPF15;NBPF26;NBPF14;NBPF1;NBPF12, MCF, 0.25µM, set4): 0.03286 | log2FC (compound/DMSO) ([2]; protein NBPF19;NBPF8;NBPF26;NBPF14;NBPF12;NBPF10;NBPF15;NBPF1, MCF7, 2.5 µM, set3): -0.1342 | log2FC (compound/DMSO) ([2]; protein NUDT4;NUDT11;NUDT10, MCF, 0.25µM, set4): 0.03432 | log2FC (compound/DMSO) ([2]; protein UQCRHL;UQCRH, MCF, 0.25µM, set4): 0.1631 | IC50 (full-length AAK1; AAK1 intact (IC50±sd)/μM, intact cells, ^a values estimated by extrapolation): 0.012 ± 0.002 µM | IC50 (full-length AAK1; AAK1 permeabilized (IC50±sd)/μM, permeabilized cells): 0.015 ± 0.002 µM | IC50 (AURKA; AURKA intact (IC50±sd)/μM, intact cells): 0.577 ± 0.391 µM | IC50 (AURKA; AURKA permeabilized (IC50±sd)/μM, permeabilized cells): 0.507 ± 0.079 µM
